Data reported in PubChem BioAssay (NCI).
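GI50 marks 50% less growth. TGI denotes the concentration required for complete inhibition of growth.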

Assays:
Experiment in all cases: growth of human tumour cells (NCI), 384-well format
SF-295 CNS = test system: SF-295 CNS
UACC-257 melanoma = test system: UACC-257 melanoma
A549 NSCLC = test system: A549 NSCLC
HOP-92 NSCLC = test system: HOP-92 NSCLC
HCC-2998 colon = test system: HCC-2998 colon
LOX IMVI melanoma = test system: LOX IMVI melanoma
HS 578T breast = test system: HS 578T breast
MDA-MB-435 melanoma = test system: MDA-MB-435 melanoma
MOLT-4 leukemia = test system: MOLT-4 leukemia
NCI-H460 NSCLC = test system: NCI-H460 NSCLC
KM12 colon = test system: KM12 colon
HCT-15 colon = test system: HCT-15 colon
A498 renal = test system: A498 renal
MDA-MB-231 breast = test system: MDA-MB-231 breast
MCF7 breast = test system: MCF7 breast
HL-60(TB) leukemia = test system: HL-60(TB) leukemia
NCI/ADR-RES ovarian = test system: NCI/ADR-RES ovarian
CAKI-1 renal = test system: CAKI-1 renal
SF-539 CNS = test system: SF-539 CNS
786-0 renal = test system: 786-0 renal
NCI-H522 lung = test system: NCI-H522 lung
RPMI-8226 leukemia = test system: RPMI-8226 leukemia
OVCAR-5 ovarian = test system: OVCAR-5 ovarian
UO-31 renal = test system: UO-31 renal
DU-145 prostate = test system: DU-145 prostate
EKVX NSCLC = test system: EKVX NSCLC
NCI-H226 lung = test system: NCI-H226 lung
PC-3 prostate = test system: PC-3 prostate
COLO 205 colon = test system: COLO 205 colon
SW-620 colon = test system: SW-620 colon
HOP-62 NSCLC = test system: HOP-62 NSCLC
M14 melanoma = test system: M14 melanoma
OVCAR-8 ovarian = test system: OVCAR-8 ovarian
IGROV1 ovarian = test system: IGROV1 ovarian
T-47D breast = test system: T-47D breast
SNB-75 CNS = test system: SNB-75 CNS
MALME-3M melanoma = test system: MALME-3M melanoma
SR leukemia = test system: SR leukemia
SK-MEL-5 melanoma = test system: SK-MEL-5 melanoma
NCI-H23 lung = test system: NCI-H23 lung
SK-OV-3 ovarian = test system: SK-OV-3 ovarian
NCI-H322M lung = test system: NCI-H322M lung
SNB-19 CNS = test system: SNB-19 CNS
ACHN renal = test system: ACHN renal
SF-268 CNS = test system: SF-268 CNS
HCT-116 colon = test system: HCT-116 colon
TK-10 renal = test system: TK-10 renal
MDA-MB-468 breast = test system: MDA-MB-468 breast
OVCAR-3 ovarian = test system: OVCAR-3 ovarian
UACC-62 melanoma = test system: UACC-62 melanoma
U251 glioblastoma = test system: U251 glioblastoma
HT29 colon = test system: HT29 colon
SK-MEL-28 melanoma = test system: SK-MEL-28 melanoma
OVCAR-4 ovarian = test system: OVCAR-4 ovarian
BT-549 breast = test system: BT-549 breast
SN12C renal = test system: SN12C renal
RXF 393 renal = test system: RXF 393 renal

Cc1ccc(-c2cc(C(F)(F)F)nn2-c2ccc(S(N)(=O)=O)cc2)cc1
GI50 (SF-295 CNS): 16.5 µM | TGI (SF-295 CNS): 30.1 µM | GI50 (UACC-257 melanoma): 16.6 µM | TGI (UACC-257 melanoma): 30.3 µM | GI50 (A549 NSCLC): 14.4 µM | TGI (A549 NSCLC): 27.5 µM | GI50 (HOP-92 NSCLC): 16 µM | TGI (HOP-92 NSCLC): 29.4 µM | GI50 (HCC-2998 colon): 14.9 µM | TGI (HCC-2998 colon): 28.1 µM | GI50 (LOX IMVI melanoma): 17.6 µM | TGI (LOX IMVI melanoma): 31.4 µM | GI50 (HS 578T breast): 14.5 µM | TGI (HS 578T breast): 27.7 µM | GI50 (MDA-MB-435 melanoma): 19.3 µM | TGI (MDA-MB-435 melanoma): 33.4 µM | GI50 (MOLT-4 leukemia): 9.05 µM | TGI (MOLT-4 leukemia): 21.3 µM | GI50 (NCI-H460 NSCLC): 15.3 µM | TGI (NCI-H460 NSCLC): 28.7 µM | GI50 (KM12 colon): 15.8 µM | TGI (KM12 colon): 29.2 µM | GI50 (HCT-15 colon): 14.7 µM | TGI (HCT-15 colon): 27.9 µM | GI50 (A498 renal): 15.6 µM | TGI (A498 renal): 28.9 µM | GI50 (MDA-MB-231 breast): 15.7 µM | TGI (MDA-MB-231 breast): 29.2 µM | GI50 (MCF7 breast): 14.2 µM | TGI (MCF7 breast): 27.2 µM | GI50 (HL-60(TB) leukemia): 20.5 µM | TGI (HL-60(TB) leukemia): 34.8 µM | GI50 (NCI/ADR-RES ovarian): 15.7 µM | TGI (NCI/ADR-RES ovarian): 29.1 µM | GI50 (CAKI-1 renal): 16.8 µM | TGI (CAKI-1 renal): 30.5 µM | GI50 (SF-539 CNS): 16.7 µM | TGI (SF-539 CNS): 30.4 µM | GI50 (786-0 renal): 14.1 µM | TGI (786-0 renal): 27.4 µM | GI50 (NCI-H522 lung): 13.6 µM | TGI (NCI-H522 lung): 26.5 µM | GI50 (RPMI-8226 leukemia): 12.1 µM | TGI (RPMI-8226 leukemia): 24.5 µM | GI50 (OVCAR-5 ovarian): 16.2 µM | TGI (OVCAR-5 ovarian): 29.7 µM | GI50 (UO-31 renal): 14.7 µM | TGI (UO-31 renal): 27.9 µM | GI50 (DU-145 prostate): 15 µM | TGI (DU-145 prostate): 28.2 µM | GI50 (EKVX NSCLC): 14.2 µM | TGI (EKVX NSCLC): 27.2 µM | GI50 (NCI-H226 lung): 13 µM | TGI (NCI-H226 lung): 25.6 µM | GI50 (PC-3 prostate): 14.6 µM | TGI (PC-3 prostate): 27.8 µM | GI50 (COLO 205 colon): 16.2 µM | TGI (COLO 205 colon): 29.7 µM | GI50 (SW-620 colon): 17.1 µM | TGI (SW-620 colon): 30.9 µM | GI50 (HOP-62 NSCLC): 15.3 µM | TGI (HOP-62 NSCLC): 28.6 µM | GI50 (M14 melanoma): 19 µM | TGI (M14 melanoma): 33.1 µM | GI50 (OVCAR-8 ovarian): 15.6 µM | TGI (OVCAR-8 ovarian): 28.9 µM | GI50 (IGROV1 ovarian): 16.3 µM | TGI (IGROV1 ovarian): 29.8 µM | GI50 (T-47D breast): 11.4 µM | TGI (T-47D breast): 23.7 µM | GI50 (SNB-75 CNS): 10.8 µM | TGI (SNB-75 CNS): 23 µM | GI50 (MALME-3M melanoma): 16.2 µM | TGI (MALME-3M melanoma): 29.8 µM | GI50 (SR leukemia): 29 µM | TGI (SR leukemia): 43.8 µM | GI50 (SK-MEL-5 melanoma): 13.8 µM | TGI (SK-MEL-5 melanoma): 26.7 µM | GI50 (NCI-H23 lung): 15.6 µM | TGI (NCI-H23 lung): 29 µM | GI50 (SK-OV-3 ovarian): 17.1 µM | TGI (SK-OV-3 ovarian): 30.9 µM | GI50 (NCI-H322M lung): 15.9 µM | TGI (NCI-H322M lung): 29.4 µM | GI50 (SNB-19 CNS): 16.6 µM | TGI (SNB-19 CNS): 30.4 µM | GI50 (ACHN renal): 15.1 µM | TGI (ACHN renal): 28.3 µM | GI50 (SF-268 CNS): 16.4 µM | TGI (SF-268 CNS): 30 µM | GI50 (HCT-116 colon): 15.2 µM | TGI (HCT-116 colon): 28.5 µM | GI50 (TK-10 renal): 16.7 µM | TGI (TK-10 renal): 30.4 µM | GI50 (MDA-MB-468 breast): 13.6 µM | TGI (MDA-MB-468 breast): 26.5 µM | GI50 (OVCAR-3 ovarian): 14.3 µM | TGI (OVCAR-3 ovarian): 27.4 µM | GI50 (UACC-62 melanoma): 18.4 µM | TGI (UACC-62 melanoma): 32.4 µM | GI50 (U251 glioblastoma): 16 µM | TGI (U251 glioblastoma): 29.5 µM | GI50 (HT29 colon): 16.1 µM | TGI (HT29 colon): 29.6 µM | GI50 (SK-MEL-28 melanoma): 17.6 µM | TGI (SK-MEL-28 melanoma): 31.4 µM | GI50 (OVCAR-4 ovarian): 11.8 µM | TGI (OVCAR-4 ovarian): 24.1 µM | GI50 (BT-549 breast): 15.9 µM | TGI (BT-549 breast): 29.3 µM | GI50 (SN12C renal): 15.2 µM | TGI (SN12C renal): 28.6 µM | GI50 (RXF 393 renal): 14.4 µM | TGI (RXF 393 renal): 27.4 µM
